# From US11738099B2, “Molecular probes and methods of use” (CASE WESTERN RESERVE UNIVERSITY, priority 2014, dated 2023)
# Where no end group is shown, it is not given here.
# Legend:
# MDA-MB-231 tumours [1] = assay: Fluorescence imaging of tumours, organs and sections, MDA-MB-231 model; type: in vivo, mouse
# Protocol: (§1) To determine the distribution of ZD2-Cy5.5 in the major organs and tumours, 10 nmol ZD2-Cy5.5 was injected in tumour-bearing mice through the tail vein. At 3 h after injection, mice were sacrificed. Tumours and organs were collected and imaged with CSi Maestro imaging system (Woburn, Mass., USA) using the deep red filter sets (exposure time: 1000 ms).
# (§2) Tumours were embedded in Optimum Cutting Temperature Compound (OCT) and kept froze in −80° C. Tumour tissues sectioned at the thickness of 5 μm were then fixed and permeabilized with cold acetone. BSA (1%) in PBS was used to block the tissue at room temperature for 1 hour. Mouse anti-EDB-FN antibody, BC-1 (ab154210, Abcam, Cambridge, Mass., USA), diluted with 1% BSA (1:500) was applied to the tissue and incubated at room temperature for 1 hour. After extensive washing, AlexFluor594-conjugated anti-mouse IgG antibody (1:500) (Invitrogen, Eugene, Oreg., USA) was applied and incubated with the tissue for 1 hour. Tissue sections were then counterstained with Prolong Gold antifade mounting medium with DAPI (Invitrogen). Confocal laser scanning microscopy (FV1000, Olympus, Japan) was used to acquire the fluorescence images of the tissues. H&E staining of the tissue was performed at the tissue resource core of Case Western Reserve University. H&E staining images were acquired using the Virtual slide microscope VS120 (Olympus).
# MCF-7 cells = assay: ZD2-Cy5.5 binding, 3D culture of MCF-7 cells; type: cell-based; details: 250 nM, 1 h, confocal microscopy
# Protocol: (§3) MDA-MB-231, Hs578T, BT549, MCF-7, ZR-75-1 and T47D were acquired from American Type Culture Collection (ATCC, Rockville, Md., USA). MDA-MB-231 cells were maintained in Dulbecco Modified Eagle Medium (DMEM) supplemented with 10% fetal bovine serum (FBS) and 5% penicillin/streptomycin (pen/strep). Hs578T, BT549 and MCF-7 cells were maintained in Eagle Minimum Essential Medium (EMEM) supplemented with 0.01 mg/ml human recombinant insulin, 10% FBS and 5% pen/strep. ZR-75-1 and T47D were maintained in RPMI 1640 medium supplemented with 10% FBS and 5% pen/strep. Three-dimensional culture of cells was achieved by an “on-top” matrigel method reported previously. Briefly, on a glass-bottom plate a thick layer of matrigel was coated, followed by plating MDA-MB-231 or MCF-7 cells on top of the matrigel. Once 3D sphere or clusters formed, ZD2-Cy5.5 was added to the medium to the final concentration of 250 nM. Binding of ZD2-Cy5.5 to the 3D spheres was evaluated using a confocal laser scanning microscope (Olympus Corporation, Tokyo, Japan) after culturing for 1 h.
# MCF-7 tumours [2] = assay: Fluorescence imaging of tumour sections, MCF-7 model; details: mouse, in vivo
# Protocol: as §1, §2
# [3] = test system: LNCaP prostate tumor xenografts; assay: Ex vivo fluorescence imaging and sections, LNCaP mouse model; type: in vivo; details: confocal microscopy
# Protocol: (§4) After fluorescence imaging of the organs, they were embedded in O.C.T and sectioned at 5 μm thickness, and mounted on to glass slides. The slides were fixed and permeabilized with cold acetone, followed by blocking with 1% BSA for 1 hour. DAPI or EDB-FN specific antibody, BC-1 (Abcam, Cambridge, Mass.), were applied subsequently for staining. Unbound antibodies were washed with TBS-T (0.1%). Alexa Fluor 594-conjugated goat anti-mouse IgG H&L (Abcam) was used as the secondary antibody. Prolong Gold antifade solution (Invitrogen, Grand Island, N.Y.), was used to cover the slides. The stained tissue sections were imaged using confocal laser scanning microscopy.
# (§5) The targeted binding of ZD2-Cy5.5 to the prostate tumor was assessed ex vivo using Maestro FLEX In vivo Imaging System (Caliper Life Sciences, Hopkinton, Mass.) using a red filter set (spectral range of 630-910 nm, 1000 ms exposure time). ZD2-Cy5.5 (10 nmol) was administered to study the in vivo distribution of ZD2-based probes. At 3 h post-injection, the mice were sacrificed to image the tumors and the organs.
# PC3 spheroids = assay: ZD2-Cy5.5 binding, 3D matrigel culture of PC3 cells; type: cell-based; details: 250 nM, 1 h
# Protocol: (§6) All reagents for chemical synthesis were purchased from Sigma Aldrich unless stated otherwise. PC3 and LNCaP cells were purchased from American Type Culture Collection (ATCC, Manassas, Va., USA), and grown in RPMI medium (Thermo Fisher Scientific, Waltham, Mass., USA) supplemented with 10% Fetal Bovine Serum (FBS) and 1% Penn/Strep at 37° C. in 5% CO2. To construct GFP-expressing cell lines, cells were transfected with lentivirus as previously reported. Matrigel 3D culture was formed following the 3D “on-top” protocol. Briefly, a glass-bottom plate was coated with a thick layer of freshly thawed matrigel, followed by solidifying the matrigel at 37° C. for 15-30 min. Cells were then plated onto the coated plate with medium containing 5% matrigel. The culture was maintained for at least 4-6 days and then ZD2-Cy5.5 (250 nM) was added to the culture medium. After 1 h, cells in the 3D matrigel were imaged with confocal laser fluorescence microscopy.
# [4] = test system: PC3 prostate tumor xenografts; assay: Ex vivo fluorescence imaging, PC3 mouse model; type: in vivo; details: 3 hours after intravenous injection, 10 nmol
# Protocol: as §4, §5
# MDA-MB-231 spheres = assay: ZD2-Cy5.5 binding, 3D culture of MDA-MB-231 cells; type: cell-based; details: 250 nM, 1 h, confocal microscopy
# Protocol: as §3
# LNCaP cell clusters = assay: ZD2-Cy5.5 binding, 3D matrigel culture of LNCaP cells; type: cell-based; details: 250 nM, 1 h
# Protocol: as §6
# [5] = test system: Hs578T and ZR-75-1 xenografts; assay: MRI at 7 T, mice bearing Hs578T and ZR-75-1 xenografts; type: in vivo, mouse; details: 20 μmol Gd/kg, 30 min
# Protocol: (§7) Female athymic nude mice were purchased from the Case Comprehensive Cancer Center and housed in the Case Center Imaging Research. All animal experiments were carried out according to a protocol approved by the IACUC of Case Western Reserve University. To initiate tumour xenografts, cells cultured in 150 mm dishes were trypsinized and centrifuged. Cell pellets from each dish were suspended in 100 μL PBS and reconstituted with Corning Matrigel Matrix High Concentration (Corning, Corning, N.Y., USA) to a concentration of 2×10^7 cells/mL on ice. The suspended cells in 100 μL matrigel solution were injected subcutaneously in the flank of mice (4-6 weeks) using a 19-gauge needle. After injection, a plug in flank was formed due to matrigel gelling. Tumours were allowed to grow for at least a month before imaging. […]
# (§8) MR images of the mice bearing MDA-MB-231 or MCF-7 tumour xenografts were acquired on an Aspect M3 small animal MRI scanner (1 Tesla). […] Images were exported into DICOM data, which were then processed and analyzed using Matlab (Natick, Mass., USA). The contrast-to-noise ratio of tumours in the images was calculated as the difference between tumour mean intensity minus muscle mean intensity, divided by the noise. […] The images were similarly analyzed as described above.
# [6] = In vitro transmetallation assay with human serum; type: in vitro ADME; details: 2 h
# Protocol: We performed in vitro transmetallation assay according to the protocol reported previously. Briefly, ZD2-Gd3N@C80 (0.02 mM Gd/mL) was incubated with human serum for 2 h. According to previous reports, transmetallation of Gd with Zn^2+, Cu^2+ and Ca^2+ bound in serum proteins occurs rapidly and 2 h is sufficient to study the equilibrium of transmetallation. The mixtures were then centrifuged at 4000 rpm and 25° C. for 150 min using CF-10 centrifugal filters (molecular weight cutoff 10 kDa). Metal ions in both the upper reservoir and the filtrates were quantified by ICP-OES. […] The degree of transmetallation of ZD2-Gd3N@C80 with Zn^2+, Cu^2+ and Ca^2+ ions in serum was evaluated using the percentage of Zn^2+, Cu^2+ and Ca^2+ ions filtered through the membrane, calculated as Transmetallation (%)=(concentration of ions in the filtrates)/(total ion concentrations before filtration)×100. Human serum was used a control.
# MCF-7 tumours [7] = assay: MRI at 1.0 Tesla, MCF-7 tumours; type: in vivo, mouse; details: 1.67 μmol/kg i.v.
# Protocol: MR images of the mice bearing MDA-MB-231 or MCF-7 tumour xenografts were acquired on an Aspect M3 small animal MRI scanner (1 Tesla). Mice were placed on a holder with the temperature maintained at 37° C., with isoflurane/oxygen mixture supplied to the mice through a nose cone. A thin catheter filled with PBS was connected to the tail vein of the mice. After mice were placed in the coil, a pilot scan was performed to adjust mice to the proper location in the coil. An axial T1-weighted sequence (TR=500 ms; TE=9 ms; Flip angle=90°; Field of view=3 cm×3 cm; Matrix size=128×128×8; slice thickness=2 mm; inter-slice distance=1 mm) was then used to acquire the images of the tumours before and 10 min, 20 min, and 30 min after contrast injection. Images were exported into DICOM data, which were then processed and analyzed using Matlab (Natick, Mass., USA). The contrast-to-noise ratio of tumours in the images was calculated as the difference between tumour mean intensity minus muscle mean intensity, divided by the noise. Three-dimensional images of mice were acquired using a gradient echo T1-weighted sequence with the following parameters: TR=17 ms; TE=6 ms; Flip angle=15°; Field of view=3.5 cm×8 cm; Matrix size=128×512×16; slice thickness=1.5 mm. […] The images were similarly analyzed as described above.
# MDA-MB-231 tumours [8] = assay: MRI at 1.0 Tesla, MDA-MB-231 tumours; type: in vivo, mouse
# Protocol: MR images of the mice bearing MDA-MB-231 or MCF-7 tumour xenografts were acquired on an Aspect M3 small animal MRI scanner (1 Tesla). Mice were placed on a holder with the temperature maintained at 37° C., with isoflurane/oxygen mixture supplied to the mice through a nose cone. A thin catheter filled with PBS was connected to the tail vein of the mice. After mice were placed in the coil, a pilot scan was performed to adjust mice to the proper location in the coil. An axial T1-weighted sequence (TR=500 ms; TE=9 ms; Flip angle=90°; Field of view=3 cm×3 cm; Matrix size=128×128×8; slice thickness=2 mm; inter-slice distance=1 mm) was then used to acquire the images of the tumours before and 10 min, 20 min, and 30 min after contrast injection. Images were exported into DICOM data, which were then processed and analyzed using Matlab (Natick, Mass., USA). The contrast-to-noise ratio of tumours in the images was calculated as the difference between tumour mean intensity minus muscle mean intensity, divided by the noise. Three-dimensional images of mice were acquired using a gradient echo T1-weighted sequence with the following parameters: TR=17 ms; TE=6 ms; Flip angle=15°; Field of view=3.5 cm×8 cm; Matrix size=128×512×16; slice thickness=1.5 mm. Analysis of the change in signal intensity in muscle, heart, liver, kidney, and bladder was performed using Matlab. MRI at 7 Tesla was performed on a horizontal Bruker scanner. T1-weighted spin echo sequence with the following parameters was used: field of view (FOV): 3 cm; slice thickness: 1.2 mm; interslice distance: 1.2 mm; TR: 500 ms, TE: 8.1 ms; flip angle: 90°; average: 2; matrix size: 128×128. The images were similarly analyzed as described above.
# [9] = test system: BT549 and T47D xenografts; assay: MRI at 7 T, mice bearing BT549 and T47D xenografts; type: in vivo, mouse; details: 20 μmol Gd/kg, 30 min
# Protocol: as §7, §8
# Water solubility = type: physicochemical; details: gadofullerene agent
# [10] = Relaxivity measurement of gadofullerenes; type: physicochemical
# Protocol: Infrared spectrum of ZD2-Gd3N@C80 was performed using the Cary 630 FTIR Spectrometer (Agilent Technologies, Santa Clara, Calif., USA). Lyophilized hydroxylated Gd3N@C80 or ZD2-Gd3N@C80 was reconstituted to a serial dilution in water. The solutions were pipetted in NMR tubes (500 μL in each tube), and placed in a relaxometer (Bruker) at 1.5 Tesla. For relaxivity measurement at 7 Tesla, NMR tubes containing contrast agent solutions were bundled and placed in a mouse coil in a horizontal 7 Tesla Bruker scanner (Bruker Biospin Co., Billerica, Mass.). T, maps of the solutions were acquired using a previously reported method^29. T1 and T2 values of each solution were measured. The r1 and r2 relaxivities of the contrast agent were calculated as the slope of the plot of 1/T1 and 1/T2 relaxation rates against the concentrations.
# Size by TEM and DLS = type: physicochemical
substance,measurement,setting,value
ZD2-Cy5.5: linear ZD2 peptide with PEG spacer conjugated to Cy5.5 NHS ester (TVRTSAD; also: PEG spacer conjugated to Cy5.5 NHS ester),fluorescence intensity in MDA-MB-231 tumours vs MCF-7 tumours and normal tissues,"MDA-MB-231 tumours [1]; 0.5 μmol/kg i.v., 3 hours after injection",greater
same,fluorescence signal in the liver and kidneys,MDA-MB-231 tumours [1]; 3 hours after injection,Relatively high fluorescence signal intensity
same,Cy5.5 fluorescence of MDA-MB-231 tumour sections,"MDA-MB-231 tumours [1]; mouse, in vivo",strong Cy5.5 fluorescence
same,binding and fluorescence of MCF-7 cells,MCF-7 cells,lower ZD2-Cy5.5 binding and weaker fluorescence intensity
same,ZD2-Cy5.5 binding in MCF-7 tumour sections,MCF-7 tumours [2],little
same,probe in LNCaP tumor sections,[3],undetectable
same,binding to PC3 spheroids,PC3 spheroids,able to bind EDB-FN secreted by the PC3 spheroids
same,fluorescence signal of PC3 tumors vs normal organs,[4],enhanced fluorescence signal
same,fluorescence of MDA-MB-231 spheres,MDA-MB-231 spheres,strong fluorescence intensity
same,binding to LNCaP cell clusters,LNCaP cell clusters,no peptide binding was detected
"ZD2-Gd3N@C80: ZD2-Cys peptide conjugated to maleimido hydroxylated gadofullerene Gd3N@C80, about one peptide per cage (CTVRTSAD; also: conjugated to maleimido hydroxylated gadofullerene Gd3N@C80, about one peptide per cage)",signal enhancement and CNR increase in Hs578T vs ZR-75-1 tumours,[5],greater signal enhancement and significantly higher CNR increase
same,transmetallation,[6],< 0.12%
same,signal enhancement in MCF-7 tumours,MCF-7 tumours [7],little enhancement
same,signal enhancement in MDA-MB-231 tumours,"MDA-MB-231 tumours [8]; 1.67 μmol/kg i.v., 1.0 Tesla, at least 30 minutes",Significant signal enhancement
same,signal enhancement in MDA-MB-231 tumours with co-injection of ZD2 peptide,MDA-MB-231 tumours [8]; 1.67 μmol/kg with 25 μmol/kg ZD2 peptide,significantly reduced the signal enhancement
same,increase of contrast-to-noise ratio (CNR) in MDA-MB-231 tumours,"MDA-MB-231 tumours [8]; 1.67 μmol/kg, 10-30 min",39 to 45%
same,signal enhancement and CNR increase in BT549 vs T47D tumours,[9],greater signal enhancement and significantly higher CNR increase
same,water solubility,Water solubility,complete water solubility
same,r1 relaxivity per Gd(III) ion,[10]; 1.5 Tesla,74.6 mM⁻¹ s⁻¹
same,r1 relaxivity per molecule,[10]; 1.5 Tesla,223.8 mM⁻¹ s⁻¹
same,r1 relaxivity per Gd(III) ion,[10]; 7 Tesla,24.78 mM⁻¹ s⁻¹
same,r1 relaxivity relative to clinical Gd(III)-based contrast agents,[10]; vs Gd-DTPA and Gd(HP-DO3A),~20 times
same,average radius,Size by TEM and DLS; DLS,1.40 nm
same,average diameter,Size by TEM and DLS; TEM and DLS,2.8 nm
